Assay results reported in PubChem BioAssay (NCI).
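Each compound was tested at five concentrations against cells in 96-well plates for 48 hours. TGI marks complete inhibition of growth.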

Tests used:
Assay in all cases: DTP human tumour cell line panel, 48 h
OVCAR-4 ovarian = tested on: OVCAR-4 ovarian
LXFL 529 NSCLC = tested on: LXFL 529 NSCLC
OVCAR-8 ovarian = tested on: OVCAR-8 ovarian
OVCAR-3 ovarian = tested on: OVCAR-3 ovarian
SF-539 CNS = tested on: SF-539 CNS
RXF-631 renal = tested on: RXF-631 renal
SN12C renal = tested on: SN12C renal
UO-31 renal = tested on: UO-31 renal
NCI-H460 lung = tested on: NCI-H460 lung
KM20L2 colon = tested on: KM20L2 colon
HCT-15 colon = tested on: HCT-15 colon
M19-MEL melanoma = tested on: M19-MEL melanoma
SF-295 CNS = tested on: SF-295 CNS
U251 CNS = tested on: U251 CNS
786-0 renal = tested on: 786-0 renal
NCI-H23 lung = tested on: NCI-H23 lung
HCT-116 colon = tested on: HCT-116 colon
DMS 273 small cell lung = tested on: DMS 273 small cell lung
ACHN renal = tested on: ACHN renal
LOX IMVI melanoma = tested on: LOX IMVI melanoma
HT29 colon = tested on: HT29 colon
TK-10 renal = tested on: TK-10 renal
A498 renal = tested on: A498 renal
SNB-75 CNS = tested on: SNB-75 CNS
KM12 colon = tested on: KM12 colon
CCRF-CEM leukemia = tested on: CCRF-CEM leukemia
DLD-1 colon = tested on: DLD-1 colon
SK-OV-3 ovarian = tested on: SK-OV-3 ovarian
XF 498 CNS = tested on: XF 498 CNS
SNB-19 CNS = tested on: SNB-19 CNS
NCI-H522 lung = tested on: NCI-H522 lung
COLO 205 colon = tested on: COLO 205 colon
SR leukemia = tested on: SR leukemia
A549 NSCLC = tested on: A549 NSCLC
SK-MEL-5 melanoma = tested on: SK-MEL-5 melanoma
HL-60(TB) leukemia = tested on: HL-60(TB) leukemia
CAKI-1 renal = tested on: CAKI-1 renal
SK-MEL-2 melanoma = tested on: SK-MEL-2 melanoma
M14 melanoma = tested on: M14 melanoma
K-562 leukemia = tested on: K-562 leukemia
SK-MEL-28 melanoma = tested on: SK-MEL-28 melanoma
UACC-62 melanoma = tested on: UACC-62 melanoma
NCI-H226 lung = tested on: NCI-H226 lung
IGROV1 ovarian = tested on: IGROV1 ovarian
SNB-78 CNS = tested on: SNB-78 CNS
MOLT-4 leukemia = tested on: MOLT-4 leukemia
SW-620 colon = tested on: SW-620 colon
OVCAR-5 ovarian = tested on: OVCAR-5 ovarian
HCC-2998 colon = tested on: HCC-2998 colon
HOP-18 NSCLC = tested on: HOP-18 NSCLC
UACC-257 melanoma = tested on: UACC-257 melanoma
SF-268 CNS = tested on: SF-268 CNS
MALME-3M melanoma = tested on: MALME-3M melanoma
RXF 393 renal = tested on: RXF 393 renal
EKVX NSCLC = tested on: EKVX NSCLC
HOP-62 NSCLC = tested on: HOP-62 NSCLC
DMS 114 small cell lung = tested on: DMS 114 small cell lung
RPMI-8226 leukemia = tested on: RPMI-8226 leukemia
HOP-92 NSCLC = tested on: HOP-92 NSCLC

Measured: TGI

Cc1ccc(S(=O)(=O)N/N=C/c2oc(-c3ccncc3)c(-c3ccncc3)c2[N+](=O)[O-])cc1
not listed: DMS 114 small cell lung | RPMI-8226 leukemia | HOP-92 NSCLC
> 100 µM: all other assays above

O=C1[C@@H]2C3c4ccccc4C([C@@H]2C(=O)N1c1ccccc1)S3(=O)=O
not listed: OVCAR-4 ovarian | A498 renal | A549 NSCLC | CAKI-1 renal | SK-MEL-28 melanoma | HOP-62 NSCLC
> 100 µM: all other assays above
